Patent US20260200897A1, “4-((5-(3-(4-(PYRIDIN-2-YL)CYCLOPENTYL)-1H-PYRAZOL-3-YL)AMINO)-BENZENESULFONAMIDE DERIVATIVES AND SIMILAR COMPOUNDS AS CDK INHIBITORS FOR THE TREATMENT OF CANCER” (BeOne Medicines I GmbH, priority 2023, published 2026)

Assays:
CDK1/Cyclin B1 = CDK1/Cyclin B1 (Homo sapiens, UniProt P06493); assay: CDK1/Cyclin B1 TR-FRET biochemical assay, 1 mM ATP; conditions: 0.15 μM Rb (Ser780)-biotin substrate, 90 min reaction, Table 2
Experimental: (§1) Compounds disclosed herein were tested for inhibition of CDK2/Cyclin E1 or CDK1/Cyclin B kinase in an assay based on the time-resolved fluorescence-resonance energy transfer (TR-FRET) methodology. The assay was carried out in 384-well low volume black plates in a reaction mixture containing CDK2/Cyclin E1 or CDK1/Cyclin B1, 1 mM ATP for CDK2/Cyclin E1 and CDK1/Cyclin B1, 0.15 μM Rb (Ser780)-biotin substrate and 0-10 μM compound in buffer containing 50 mM HEPES pH7.0, 0.02% NaN3, 0.01% BSA, 0.1 mM Orthovanadate, 50 mM MgCl2, 1 mM DTT and 0.005% Tween-20. The kinase was incubated with compound for 60 minutes at room temperature and the reaction was initiated by the addition of ATP and Rb (Ser780)-biotin substrate. After reaction at room temperature for 90 minutes, an equal volume of stop/detection solution was added according to the manufacture's instruction (Cisbio Bioassays). The stop/detection solution contained Streptavidin-XL665 and Anti-pRb (Ser780) mAb-Eu Cryptate in Detection buffer (Cisbio Bioassays). Plates were incubated at room temperature for 60 minutes, and the TR-FRET signals (ex337 nm, em665 nm/620 nm) were recorded on a PHERAstar FSX plate reader (BMG Labtech). The inhibition percentage of CDK2/Cyclin E1 or CDK1/Cyclin B1 kinase activity in presence of increasing concentrations of compounds was calculated based on the ratio of fluorescence at 665 nm to that at 620 nm. The IC50 for each compound was derived from fitting the data to the four-parameter logistic equation by Dotmatics.

CDK2/Cyclin E1 = CDK2/Cyclin E1 (Homo sapiens, UniProt P24941); assay: CDK2/Cyclin E1 TR-FRET biochemical assay, 1 mM ATP; conditions: 0.15 μM Rb (Ser780)-biotin substrate, 90 min reaction, Table 2
Experimental: as §1

Sequence of CDK1/Cyclin B1 (P06493 whole entry): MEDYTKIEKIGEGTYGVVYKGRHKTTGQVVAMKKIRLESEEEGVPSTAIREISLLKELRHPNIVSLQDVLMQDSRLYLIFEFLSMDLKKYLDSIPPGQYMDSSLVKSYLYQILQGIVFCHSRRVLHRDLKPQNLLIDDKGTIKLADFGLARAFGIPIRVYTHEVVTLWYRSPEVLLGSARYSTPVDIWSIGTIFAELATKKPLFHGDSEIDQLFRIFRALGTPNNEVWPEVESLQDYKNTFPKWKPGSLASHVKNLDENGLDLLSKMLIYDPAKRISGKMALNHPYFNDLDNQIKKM
Sequence of CDK1/Cyclin B1 (P14635 whole entry partner): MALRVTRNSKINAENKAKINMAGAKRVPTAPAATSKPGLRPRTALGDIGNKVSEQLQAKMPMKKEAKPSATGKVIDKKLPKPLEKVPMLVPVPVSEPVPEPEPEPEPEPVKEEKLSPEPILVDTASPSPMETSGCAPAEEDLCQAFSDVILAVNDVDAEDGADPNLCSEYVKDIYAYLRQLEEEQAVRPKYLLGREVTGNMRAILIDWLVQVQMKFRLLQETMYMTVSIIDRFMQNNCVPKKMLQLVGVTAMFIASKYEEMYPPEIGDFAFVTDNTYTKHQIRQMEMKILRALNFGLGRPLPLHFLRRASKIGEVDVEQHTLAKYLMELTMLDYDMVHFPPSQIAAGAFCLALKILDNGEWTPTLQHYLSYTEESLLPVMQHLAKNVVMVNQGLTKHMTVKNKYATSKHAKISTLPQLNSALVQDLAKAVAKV

Row | SMILES | IC50 (CDK1/Cyclin B1) [µM] | IC50 (CDK2/Cyclin E1) [µM]
1 | COc1cccc(C2CCC(c3cc(Nc4cc5c(cc4F)S(=O)(=O)NC5)n[nH]3)C2)n1 (centres unmarked) [Example 11, 6-fluoro-5-((5-(3-(6-methoxypyridin-2-yl)cyclopentyl)-1H-pyrazol-3-yl)amino)-2,3-dihydrobenzo[d]isothiazole 1,1-dioxide] | > 10 | 2.76
2 | Cc1cccc(C2CCC(c3cc(Nc4cc5c(cc4F)S(=O)(=O)NC5)n[nH]3)C2)n1 (centres unmarked) [Example 12, 6-fluoro-5-((5-(3-(6-methylpyridin-2-yl)cyclopentyl)-1H-pyrazol-3-yl)amino)-2,3-dihydrobenzo[d]isothiazole 1,1-dioxide] | > 10 | 3.99
3 | CC(C)(C)c1ccnc(C2CCC(c3cc(Nc4cc5c(cc4F)S(=O)(=O)NC5)n[nH]3)C2)c1 (centres unmarked) [Example 13, 5-((5-(3-(4-(tert-butyl)pyridin-2-yl)cyclopentyl)-1H-pyrazol-3-yl)amino)-6-fluoro-2,3-dihydrobenzo[d]isothiazole 1,1-dioxide] | > 10 | 0.462
4 | CC(C)(C)c1cnnc(C2CCC(c3cc(Nc4cc5c(cc4F)S(=O)(=O)NC5)n[nH]3)C2)c1 (centres unmarked) [Example 14, 5-((5-(3-(5-(tert-butyl)pyridazin-3-yl)cyclopentyl)-1H-pyrazol-3-yl)amino)-6-fluoro-2,3-dihydrobenzo[d]isothiazole 1,1-dioxide] | > 10 | 0.369
5 | CC(C)(C)c1ccnc(C2CCC(c3cc(Nc4cc5c(cc4F)S(=O)(=O)NC5)n[nH]3)C2)n1 (centres unmarked) [Example 15, 5-((5-(3-(4-(tert-butyl)pyrimidin-2-yl)cyclopentyl)-1H-pyrazol-3-yl)amino)-6-fluoro-2,3-dihydrobenzo[d]isothiazole 1,1-dioxide] | 1.06 | 0.0037
6 | CC(C)c1ccnc(C2CCC(c3cc(Nc4cc5c(cc4F)S(=O)(=O)NC5)n[nH]3)C2)n1 (centres unmarked) [Example 16, 6-fluoro-5-((5-(3-(4-isopropylpyrimidin-2-yl)cyclopentyl)-1H-pyrazol-3-yl)amino)-2,3-dihydrobenzo[d]isothiazole 1,1-dioxide] | 2.49 | 0.012
7 | CC(C)c1cnc(C2CCC(c3cc(Nc4cc5c(cc4F)S(=O)(=O)NC5)n[nH]3)C2)o1 (centres unmarked) [Example 18, 6-fluoro-5-((5-(3-(5-isopropyloxazol-2-yl)cyclopentyl)-1H-pyrazol-3-yl)amino)-2,3-dihydrobenzo[d]isothiazole 1,1-dioxide] | > 10 | 0.042
8 | Cc1nc(C2CCC(c3cc(Nc4cc5c(cc4F)S(=O)(=O)NC5)n[nH]3)C2)oc1C(C)(C)C (centres unmarked) [Example 19, 5-((5-(3-(5-(tert-butyl)-4-methyloxazol-2-yl)cyclopentyl)-1H-pyrazol-3-yl)amino)-6-fluoro-2,3-dihydrobenzo[d]isothiazole 1,1-dioxide] | > 10 | 0.043
9 | O=S1(=O)NCc2cc(Nc3cc(C4CCC(c5ncc(C6CC6)o5)C4)[nH]n3)c(F)cc21 (centres unmarked) [Example 20, 5-((5-(3-(5-cyclopropyloxazol-2-yl)cyclopentyl)-1H-pyrazol-3-yl)amino)-6-fluoro-2,3-dihydrobenzo[d]isothiazole 1,1-dioxide] | > 10 | 0.073
10 | CC(C)(C)c1coc(C2CCC(c3cc(Nc4ccc5c(c4F)CNS5(=O)=O)n[nH]3)C2)n1 (centres unmarked) [Example 94, 5-((5-(3-(4-(tert-butyl)oxazol-2-yl)cyclopentyl)-1H-pyrazol-3-yl)amino)-4-fluoro-2,3-dihydrobenzo[d]isothiazole 1,1-dioxide] | > 10 | 0.417
11 | CC(C)(C)c1cnc(C2CCC(c3cc(Nc4ccc5c(c4F)CNS5(=O)=O)n[nH]3)C2)s1 (centres unmarked) [Example 95, 5-((5-(3-(5-(tert-butyl)thiazol-2-yl)cyclopentyl)-1H-pyrazol-3-yl)amino)-4-fluoro-2,3-dihydrobenzo[d]isothiazole 1,1-dioxide] | > 10 | 7.2
12 | CC(C)(C)n1ccc(C2CCC(c3cc(Nc4ccc5c(c4F)CNS5(=O)=O)n[nH]3)C2)n1 (centres unmarked) [Example 98, 5-((5-(3-(1-(tert-butyl)-1H-pyrazol-3-yl)cyclopentyl)-1H-pyrazol-3-yl)amino)-4-fluoro-2,3-dihydrobenzo[d]isothiazole 1,1-dioxide] | > 10 | 0.453
13 | CC(C)(C)n1cc(C2CCC(c3cc(Nc4ccc5c(c4F)CNS5(=O)=O)n[nH]3)C2)cn1 (centres unmarked) [Example 99, 5-((5-(3-(1-(tert-butyl)-1H-pyrazol-4-yl)cyclopentyl)-1H-pyrazol-3-yl)amino)-4-fluoro-2,3-dihydrobenzo[d]isothiazole 1-dioxide] | > 10 | 3.29
14 | CC(C)(C)c1cc(C2CCC(c3cc(Nc4ccc5c(c4F)CNS5(=O)=O)n[nH]3)C2)[nH]n1 (centres unmarked) [Example 100, 5-((5-(3-(3-(tert-butyl)-1H-pyrazol-5-yl)cyclopentyl)-1H-pyrazol-3-yl)amino)-4-fluoro-2,3-dihydrobenzo[d]isothiazole 1,1-dioxide] | > 10 | 0.173
15 | CC(C)(O)c1cc(C2CCC(c3cc(Nc4ccc5c(c4F)CNS5(=O)=O)n[nH]3)C2)n[nH]1 (centres unmarked) [Example 101, 4-fluoro-5-((5-(3-(5-(2-hydroxypropan-2-yl)-1H-pyrazol-3-yl)cyclopentyl)-1H-pyrazol-3-yl)amino)-2,3-dihydrobenzo[d]isothiazole 1,1-dioxide] | > 10 | 0.564
16 | CC(C)(O)Cn1cc(C2CCC(c3cc(Nc4ccc5c(c4F)CNS5(=O)=O)n[nH]3)C2)cn1 (centres unmarked) [Example 102, 4-fluoro-5-((5-(3-(1-(2-hydroxy-2-methylpropyl)-1H-pyrazol-4-yl)cyclopentyl)-1H-pyrazol-3-yl)amino)-2,3-dihydrobenzo[d]isothiazole 1,1-dioxide] | > 10 | 0.813
17 | CC(C)(C)c1cnc(C2CCC(c3cc(Nc4ccc5c(c4F)CNS5(=O)=O)n[nH]3)C2)[nH]1 (centres unmarked) [Example 103, 5-((5-(3-(5-(tert-butyl)-1H-imidazol-2-yl)cyclopentyl)-1H-pyrazol-3-yl)amino)-4-fluoro-2,3-dihydrobenzo[d]isothiazole 1,1-dioxide] | > 10 | > 10
18 | CC(C)(C)C1CCC(C2CCC(c3cc(Nc4ccc5c(c4F)CNS5(=O)=O)n[nH]3)C2)O1 (centres unmarked) [Example 104, 5-((5-(3-(5-(tert-butyl)tetrahydrofuran-2-yl)cyclopentyl)-1H-pyrazol-3-yl)amino)-4-fluoro-2,3-dihydrobenzo[d]isothiazole 1,1-dioxide] | > 10 | 1.79
19 | CC(C)c1ncc(C2CCC(c3cc(Nc4ccc5c(c4F)CNS5(=O)=O)n[nH]3)C2)o1 (centres unmarked) [Example 105, 4-fluoro-5-((5-(3-(2-isopropyloxazol-5-yl)cyclopentyl)-1H-pyrazol-3-yl)amino)-2,3-dihydrobenzo[d]isothiazole 1,1-dioxide] | > 10 | 0.812
20 | O=S1(=O)NCc2c1ccc(Nc1cc(C3CCC(c4cnc(C5CC5)o4)C3)[nH]n1)c2F (centres unmarked) [Example 106, 5-((5-(3-(2-cyclopropyloxazol-5-yl)cyclopentyl)-1H-pyrazol-3-yl)amino)-4-fluoro-2,3-dihydrobenzo[d]isothiazole 1,1-dioxide] | > 10 | 1.05
21 | CC(C)(O)c1cnc(C2CCC(c3cc(Nc4ccc5c(c4F)CNS5(=O)=O)n[nH]3)C2)o1 (centres unmarked) [Example 110, 4-fluoro-5-((5-(3-(5-(2-hydroxypropan-2-yl)oxazol-2-yl)cyclopentyl)-1H-pyrazol-3-yl)amino)-2,3-dihydrobenzo[d]isothiazole 1,1-dioxide] | 7.24 | 0.032
22 | Cc1nc(C2CCC(c3cc(Nc4ccc5c(c4F)CNS5(=O)=O)n[nH]3)C2)oc1C(C)(C)C (centres unmarked) [Example 111, 5-((5-(3-(5-(tert-butyl)-4-methyloxazol-2-yl)cyclopentyl)-1H-pyrazol-3-yl)amino)-4-fluoro-2,3-dihydrobenzo[d]isothiazole 1,1-dioxide] | 4.47 | 0.017
23 | CC1(c2cnc(C3CCC(c4cc(Nc5ccc6c(c5F)CNS6(=O)=O)n[nH]4)C3)o2)CC1 (centres unmarked) [Example 112, 4-fluoro-5-((5-(3-(5-(1-methylcyclopropyl)oxazol-2-yl)cyclopentyl)-1H-pyrazol-3-yl)amino)-2,3-dihydrobenzo[d]isothiazole 1,1-dioxide] | 6.85 | 0.016
24 | COC(=O)c1nc(C2CCC(c3cc(Nc4ccc5c(c4F)CNS5(=O)=O)n[nH]3)C2)oc1C(C)(C)C (centres unmarked) [Example 113, methyl 5-(tert-butyl)-2-(3-(3-((4-fluoro-1,1-dioxido-2,3-dihydrobenzo[d]isothiazol-5-yl)amino)-1H-pyrazol-5-yl)cyclopentyl)oxazole-4-carboxylate] | > 10 | 0.235
25 | CCOC(=O)c1nc(C2CCC(c3cc(Nc4ccc5c(c4F)CNS5(=O)=O)n[nH]3)C2)oc1C(C)(C)C (centres unmarked) [Example 114, ethyl 5-(tert-butyl)-2-(3-(3-((4-fluoro-1,1-dioxido-2,3-dihydrobenzo[d]isothiazol-5-yl)amino)-1H-pyrazol-5-yl)cyclopentyl)oxazole-4-carboxylate] | > 10 | 0.429
